Drawing on US12662469B2 (SIRONAX LTD, priority 2018, dated 2026), this text covers EC50 for 39 compounds.

pEC50: −log10 of the molar value.

The first experiment has as its system Cell Necrosis. In words: Cell necrosis assay / cell viability assay (necrosis inhibitor activity). In kind it is cell-based.
Conditions: not given
Consider `O=C(N1CCN(Cc2ccccc2)CC1)N1N=CCC1c1ccccc1` (stereo not drawn) [Compound 97, (4-benzylpiperazin-1-yl)(5-phenyl-4,5-dihydro-1H-pyrazol-1-yl)methanone], for which the pEC50 (usually the EC50 on a negative log10 scale, so that one unit is a factor of ten) is 5.00 to 6.00.

Staying with this experiment, now noted: necrosis inhibitor activity; EC data for 14-191 extrapolated; read-out: EC50.
For the compound `N#Cc1cccc(OC2CN(C(=O)N3N=CCC3c3cc(F)cc(F)c3)C2)c1` (stereo not drawn) [Compound 71, 3-((1-(5-(3,5-difluorophenyl)-4,5-dihydro-1H-pyrazole-1-carbonyl)azetidin-3-yl)oxy)benzonitrile], the pEC50 is 6.00 to 9.00.
The same measure, in the same setting: for `O=C(N1CC(Oc2ccc(F)cn2)C1)N1N=CCC1c1ccccc1` (stereo not drawn) [Compound 72, (3-((5-fluoropyridin-2-yl)oxy)azetidin-1-yl)(5-phenyl-4,5-dihydro-1H-pyrazol-1-yl)methanone] the value was 6.00 to 9.00; for `O=C(N1CC(Oc2ccc(F)nc2)C1)N1N=CCC1c1ccccc1` (stereo not drawn) [Compound 73, (3-((6-fluoropyridin-3-yl)oxy)azetidin-1-yl)(5-phenyl-4,5-dihydro-1H-pyrazol-1-yl)methanone], 6.00 to 9.00; for `O=C(N1CC(Oc2cccnc2)C1)N1N=CCC1c1ccccc1` (stereo not drawn) [Compound 74, (5-phenyl-4,5-dihydro-1H-pyrazol-1-yl)(3-(pyridin-3-yloxy)azetidin-1-yl)methanone], 6.00 to 9.00.
Same read-out and setting: for `O=C(N1CC(Oc2ccc(F)cc2F)C1)N1N=CCC1c1cccc(F)c1` (stereo not drawn) [Compound 75, (3-(2,4-difluorophenoxy)azetidin-1-yl)(5-(3-fluorophenyl)-4,5-dihydro-1H-pyrazol-1-yl)methanone] the value was 6.00 to 9.00.
Turning to `O=C(N1CC(Oc2ccccc2F)C1)N1OCC[C@H]1c1ccccc1` [Compound 77, (S)-(3-(2-fluorophenoxy)azetidin-1-yl)(3-phenylisoxazolidin-2-yl)methanone], the pEC50 is 6.00 to 9.00.
Still for that read-out and setting: to `O=C(N1CC(Cc2ccc(F)cc2)C1)N1OCC[C@H]1c1ccccc1` [Compound 79, (S)-(3-(4-fluorobenzyl)azetidin-1-yl)(3-phenylisoxazolidin-2-yl)methanone] belongs 6.00 to 9.00.
For the compound `O=C(N1CCN(c2ncc(F)cn2)CC1)N1OCC[C@H]1c1ccccc1` [Compound 81, (S)-(4-(5-fluoropyrimidin-2-yl)piperazin-1-yl)(3-phenylisoxazolidin-2-yl)methanone], the pEC50 is 6.00 to 9.00.
Regarding `O=C(N1CC(Cc2ccc(F)cc2F)C1)N1OCC[C@H]1c1ccccc1` [Compound 82, (S)-(3-(2,4-difluorobenzyl)azetidin-1-yl)(3-phenylisoxazolidin-2-yl)methanone], the pEC50 is 6.00 to 9.00.
With `O=C(N1CCN(c2ncc(F)cn2)CC1)N1N=CCC1c1ccccc1` (stereo not drawn) [Compound 83, (4-(5-fluoropyrimidin-2-yl)piperazin-1-yl)(5-phenyl-4,5-dihydro-1H-pyrazol-1-yl)methanone], the pEC50 was 6.00 to 9.00.
The same measure, in the same setting: for `O=C(N1CCN(c2ncccn2)CC1)N1N=CCC1c1ccccc1` (stereo not drawn) [Compound 84, (5-phenyl-4,5-dihydro-1H-pyrazol-1-yl)(4-(pyrimidin-2-yl)piperazin-1-yl)methanone] the value was 6.00 to 9.00; for `O=C(N1CCN(c2ccc(F)cn2)CC1)N1N=CCC1c1ccccc1` (stereo not drawn) [Compound 85, (4-(5-fluoropyridin-2-yl)piperazin-1-yl)(5-phenyl-4,5-dihydro-1H-pyrazol-1-yl)methanone], 6.00 to 9.00.
As for `O=C(N1CCN(c2cnccn2)CC1)N1N=CCC1c1ccccc1` (stereo not drawn) [Compound 86, (5-phenyl-4,5-dihydro-1H-pyrazol-1-yl)(4-(pyrazin-2-yl)piperazin-1-yl)methanone], the negative-log EC50 (pEC50) is 6.00 to 9.00.
On to `Cc1cnc(N2CCN(C(=O)N3N=CCC3c3ccccc3)CC2)nc1` (stereo not drawn) [Compound 87, (4-(5-methylpyrimidin-2-yl)piperazin-1-yl)(5-phenyl-4,5-dihydro-1H-pyrazol-1-yl)methanone], for which the pEC50 is 6.00 to 9.00.
The same measure, in the same setting: to `O=C(N1CCN(c2ncc(Cl)cn2)CC1)N1N=CCC1c1ccccc1` (stereo not drawn) [Compound 88, (4-(5-chloropyrimidin-2-yl)piperazin-1-yl)(5-phenyl-4,5-dihydro-1H-pyrazol-1-yl)methanone] belongs 6.00 to 9.00; to `O=C(N1CCN(c2cccnn2)CC1)N1N=CCC1c1ccccc1` (stereo not drawn) [Compound 89, (5-phenyl-4,5-dihydro-1H-pyrazol-1-yl)(4-(pyridazin-3-yl)piperazin-1-yl)methanone], 5.00 to 6.00; to `O=C(N1CCN(c2ccncn2)CC1)N1N=CCC1c1ccccc1` (stereo not drawn) [Compound 90, (5-phenyl-4,5-dihydro-1H-pyrazol-1-yl)(4-(pyrimidin-4-yl)piperazin-1-yl)methanone], 5.00 to 6.00.
On the same count and under the same terms, for `O=C(N1CCN(c2ccccc2)CC1)N1N=CCC1c1ccccc1` (stereo not drawn) [Compound 91, (5-phenyl-4,5-dihydro-1H-pyrazol-1-yl)(4-phenylpiperazin-1-yl)methanone] the value was 5.00 to 6.00; for `O=C(N1CCN(c2nccs2)CC1)N1N=CCC1c1ccccc1` (stereo not drawn) [Compound 92, (5-phenyl-4,5-dihydro-1H-pyrazol-1-yl)(4-(thiazol-2-yl)piperazin-1-yl)methanone], 6.00 to 9.00.
Still for that read-out and setting: for `O=C(C1CC1)N1CCN(C(=O)N2N=CCC2c2ccccc2)CC1` (stereo not drawn) [Compound 93, (4-(cyclopropanecarbonyl)piperazin-1-yl)(5-phenyl-4,5-dihydro-1H-pyrazol-1-yl)methanone] the value was 5.00 to 6.00; for `O=C(c1ccco1)N1CCN(C(=O)N2N=CCC2c2ccccc2)CC1` (stereo not drawn) [Compound 94, (4-(furan-2-carbonyl)piperazin-1-yl)(5-phenyl-4,5-dihydro-1H-pyrazol-1-yl)methanone], 5.00 to 6.00; for `O=C(c1ccccc1)N1CCN(C(=O)N2N=CCC2c2ccccc2)CC1` (stereo not drawn) [Compound 95, (4-benzoylpiperazin-1-yl)(5-phenyl-4,5-dihydro-1H-pyrazol-1-yl)methanone], 5.00 to 6.00.
Turning to `O=C(N1CCCN(c2ncc(F)cn2)CC1)N1N=CCC1c1ccccc1` (stereo not drawn) [Compound 96, (4-(5-fluoropyrimidin-2-yl)-1,4-diazepan-1-yl)(5-phenyl-4,5-dihydro-1H-pyrazol-1-yl)methanone], the pEC50 is 5.00 to 6.00.
Turning to `O=C(N1CCN(c2cncnc2)CC1)N1N=CCC1c1ccccc1` (stereo not drawn) [Compound 99, (5-phenyl-4,5-dihydro-1H-pyrazol-1-yl)(4-(pyrimidin-5-yl)piperazin-1-yl)methanone], the pEC50 was 5.00 to 6.00.
The same measure, in the same setting: to `O=C(N1CCN(c2ncc(F)cn2)CC1)N1N=CCC1c1cccc(F)c1` (stereo not drawn) [Compound 100, (5-(3-fluorophenyl)-4,5-dihydro-1H-pyrazol-1-yl)(4-(5-fluoropyrimidin-2-yl)piperazin-1-yl)methanone] belongs 6.00 to 9.00; to `O=C(N1CCN(c2ncc(F)cn2)CC1)N1N=CCC1c1cc(F)cc(F)c1` (stereo not drawn) [Compound 101, (5-(3,5-difluorophenyl)-4,5-dihydro-1H-pyrazol-1-yl)(4-(5-fluoropyrimidin-2-yl)piperazin-1-yl)methanone], 6.00 to 9.00; to `Nc1ccnc(N2CCN(C(=O)N3N=CCC3c3ccccc3)CC2)n1` (stereo not drawn) [Compound 102, (4-(4-aminopyrimidin-2-yl)piperazin-1-yl)(5-phenyl-4,5-dihydro-1H-pyrazol-1-yl)methanone], 5.00 to 6.00.
Consider `O=C(N1CCN(c2nccc(O)n2)CC1)N1N=CCC1c1ccccc1` (stereo not drawn) [Compound 103, (4-(4-hydroxypyrimidin-2-yl)piperazin-1-yl)(5-phenyl-4,5-dihydro-1H-pyrazol-1-yl)methanone], for which the pEC50 is 5.00 to 6.00.
For the compound `Cc1csc(N2CCN(C(=O)N3N=CCC3c3ccccc3)CC2)n1` (stereo not drawn) [Compound 105, (4-(4-methylthiazol-2-yl)piperazin-1-yl)(5-phenyl-4,5-dihydro-1H-pyrazol-1-yl)methanone], the pEC50 was 5.00 to 6.00.
Turning to `Cc1cnc(N2CCN(C(=O)N3N=CCC3c3ccccc3)CC2)s1` (stereo not drawn) [Compound 106, (4-(5-methylthiazol-2-yl)piperazin-1-yl)(5-phenyl-4,5-dihydro-1H-pyrazol-1-yl)methanone], the pEC50 is 5.00 to 6.00.
As to `N#Cc1cnc(N2CCN(C(=O)N3N=CCC3c3ccccc3)CC2)s1` (stereo not drawn) [Compound 108, 2-(4-(5-phenyl-4,5-dihydro-H-pyrazole-1-carbonyl)piperazin-1-yl)thiazole-5-carbonitrile], the pEC50 is 6.00 to 9.00.
Same read-out and setting: for `C[C@H]1CN(c2ncc(F)cn2)CCN1C(=O)N1OCC[C@H]1c1ccccc1` [Compound 109, ((S)-4-(5-fluoropyrimidin-2-yl)-2-methylpiperazin-1-yl)((S)-3-phenylisoxazolidin-2-yl)methanone] the value was 6.00 to 9.00; for `C[C@@H]1CN(c2ncc(F)cn2)C[C@H](C)N1C(=O)N1OCC[C@H]1c1ccccc1` [Compound 110, ((2R,6S)-4-(5-fluoropyrimidin-2-yl)-2,6-dimethylpiperazin-1-yl)((S)-3-phenylisoxazolidin-2-yl)methanone], 6.00 to 9.00; for `C[C@H]1CN(c2ncc(Cl)cn2)CCN1C(=O)N1N=CCC1c1ccccc1` (stereo partly drawn) [Compound 113A, ((S)-4-(5-chloropyrimidin-2-yl)-2-methylpiperazin-1-yl)(5-phenyl-4,5-dihydro-1H-pyrazol-1-yl)methanone], 6.00 to 9.00.
Still for that read-out and setting: to `C[C@H]1CN(c2ncc(Cl)cn2)CCN1C(=O)N1N=CCC1c1ccccc1` (stereo partly drawn) [Compound 113B, ((S)-4-(5-chloropyrimidin-2-yl)-2-methylpiperazin-1-yl)(5-phenyl-4,5-dihydro-1H-pyrazol-1-yl)methanone] belongs 5.00 to 6.00.
Same read-out and setting: to `C[C@@H]1CN(c2ncc(F)cn2)CCN1C(=O)N1N=CCC1c1ccccc1` (stereo partly drawn) [Compound 114A, ((R)-4-(5-fluoropyrimidin-2-yl)-2-methylpiperazin-1-yl)(5-phenyl-4,5-dihydro-1H-pyrazol-1-yl)methanone] belongs 6.00 to 9.00; to `C[C@@H]1CN(c2ncc(F)cn2)CCN1C(=O)N1N=CCC1c1ccccc1` (stereo partly drawn) [Compound 114B, ((R)-4-(5-fluoropyrimidin-2-yl)-2-methylpiperazin-1-yl)(5-phenyl-4,5-dihydro-1H-pyrazol-1-yl)methanone], 5.00 to 6.00.
Turning to `C[C@H]1CN(c2ccc(F)cn2)CCN1C(=O)N1N=CCC1c1ccccc1` (stereo partly drawn) [Compound 115A, ((S)-4-(5-fluoropyridin-2-yl)-2-methylpiperazin-1-yl)(5-phenyl-4,5-dihydro-1H-pyrazol-1-yl)methanone], the pEC50 was 6.00 to 9.00.
